According to the NIST ThermoML archive (doi:10.1016/j.jct.2006.03.021):
± gives the expanded uncertainty stated by the source.

Assay: molar heat capacity at constant pressure
Conditions: 101.33 kPa, Crystal, Vacuum adiabatic calorimetry

O.O.OC[C@H]1O[C@H](O[C@H]2O[C@H](CO)[C@@H](O)[C@H](O)[C@H]2O)[C@H](O)[C@@H](O)[C@@H]1O [D-(+)-trehalose dihydrate]
Conditions | molar heat capacity at constant pressure [J/K/mol]
13.55 K | 6.385 ± 0.061
14.6 K | 7.838 ± 0.071
15 K | 8.51 ± 0.08
15.59 K | 9.345 ± 0.082
16.61 K | 10.96 ± 0.092
17.67 K | 12.73 ± 0.1
18.75 K | 14.64 ± 0.12
19.81 K | 16.57 ± 0.13
20 K | 16.78 ± 0.13
20.85 K | 18.51 ± 0.14
21.9 K | 20.53 ± 0.15
22.93 K | 22.57 ± 0.17
23.97 K | 24.62 ± 0.18
25.02 K | 26.77 ± 0.19
26.11 K | 29 ± 0.2
27.24 K | 31.35 ± 0.21
28.42 K | 33.79 ± 0.23
29.57 K | 36.22 ± 0.24
30 K | 37.06 ± 0.24
30.71 K | 38.61 ± 0.25
31.92 K | 41.15 ± 0.27
33.18 K | 43.81 ± 0.28
34.5 K | 46.58 ± 0.3
35.82 K | 49.36 ± 0.32
37.15 K | 52.14 ± 0.33
38.46 K | 54.9 ± 0.35
39.78 K | 57.62 ± 0.36
40 K | 58.13 ± 0.37
41.15 K | 60.45 ± 0.38
42.54 K | 63.33 ± 0.4
43.91 K | 66.14 ± 0.42
45.27 K | 68.9 ± 0.43
46.63 K | 71.67 ± 0.45
48.02 K | 74.49 ± 0.47
49.43 K | 77.32 ± 0.49
50 K | 78.42 ± 0.49
50.88 K | 80.24 ± 0.5
52.39 K | 83.22 ± 0.52
53.93 K | 86.27 ± 0.54
55.51 K | 89.39 ± 0.56
56.3 K | 90.95 ± 0.57
57.99 K | 94.25 ± 0.59
59.66 K | 97.53 ± 0.61
60 K | 98.14 ± 0.61
61.39 K | 100.85 ± 0.63
63.18 K | 104.27 ± 0.65
64.99 K | 107.74 ± 0.67
66.83 K | 111.22 ± 0.69
68.66 K | 114.67 ± 0.71
70 K | 117.19 ± 0.73
70.49 K | 118.11 ± 0.74
72.33 K | 121.52 ± 0.76
74.17 K | 124.94 ± 0.78
76.04 K | 128.4 ± 0.8
77.89 K | 131.81 ± 0.82
79.75 K | 135.21 ± 0.84
80 K | 135.65 ± 0.84
81.63 K | 138.61 ± 0.86
83.51 K | 142.01 ± 0.88
85.4 K | 145.39 ± 0.9
87.31 K | 148.81 ± 0.92
89.22 K | 152.17 ± 0.95
90 K | 153.54 ± 0.96
91.14 K | 155.56 ± 0.97
93.09 K | 158.95 ± 0.99
95.06 K | 162.41 ± 1
97.04 K | 165.84 ± 1
98.99 K | 169.18 ± 1.1
100 K | 170.91 ± 0.43
100.9 K | 172.45 ± 0.44
102.78 K | 175.65 ± 0.44
104.63 K | 178.78 ± 0.45
106.45 K | 181.89 ± 0.45
108.25 K | 184.88 ± 0.46
110 K | 187.82 ± 0.47
110.03 K | 187.85 ± 0.47
111.78 K | 190.76 ± 0.47
113.51 K | 193.65 ± 0.48
115.22 K | 196.52 ± 0.48
116.9 K | 199.3 ± 0.49
118.57 K | 202 ± 0.5
120 K | 204.35 ± 0.5
120.3 K | 204.92 ± 0.5
122.1 K | 207.75 ± 0.51
123.94 K | 210.99 ± 0.51
125.83 K | 213.81 ± 0.52
127.75 K | 216.99 ± 0.53
129.72 K | 220.18 ± 0.53
130 K | 220.6 ± 0.53
131.71 K | 223.29 ± 0.54
133.7 K | 226.52 ± 0.55
135.72 K | 229.81 ± 0.55
137.73 K | 232.95 ± 0.56
139.73 K | 236.18 ± 0.57
140 K | 236.57 ± 0.57
141.73 K | 239.27 ± 0.57
143.74 K | 242.56 ± 0.58
